In general, pIC50 refers to the negative decadic logarithm of the IC50, by convention in mol/L.

pIC50: −log10 of the molar value.

This assay has as its target T1, human CRTH2 (Homo sapiens, UniProt Q9Y5Y4).
T1 construct: expressed in transfected cells
T1 sequence (Q9Y5Y4 1-395): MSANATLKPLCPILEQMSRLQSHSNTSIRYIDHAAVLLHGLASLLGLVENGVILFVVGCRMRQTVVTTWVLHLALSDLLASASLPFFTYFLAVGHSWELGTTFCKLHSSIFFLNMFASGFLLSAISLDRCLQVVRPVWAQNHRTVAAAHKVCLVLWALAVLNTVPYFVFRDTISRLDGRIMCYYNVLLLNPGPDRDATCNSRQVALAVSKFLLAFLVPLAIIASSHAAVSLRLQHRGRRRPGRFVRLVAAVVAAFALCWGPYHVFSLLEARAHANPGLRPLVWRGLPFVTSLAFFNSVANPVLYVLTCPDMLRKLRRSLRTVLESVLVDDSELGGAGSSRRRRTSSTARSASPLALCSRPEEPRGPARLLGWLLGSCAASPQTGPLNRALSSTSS
The assay can be described thus: Human CRTH2 Receptor Binding Assay (whole cell, [3H]ramatroban competition). The settings on record: CHO-K1 cells expressing human CRTH2 and G-alpha16; 20 nM [3H]ramatroban; 1 hour, room temperature. From the text:
A whole cell receptor binding assay using [^3H]ramatroban as the competing radioactive ligand was employed to evaluate the compound binding activity to human CRTH2. The radioactive ligand [^3H]ramatroban was synthesized according to Sugimoto et. al. (Eur. J. Pharmacol. 524, 30-37, 2005) to a specific activity of 42 Ci/mmol.
A cell line stably expressing human CRTH2 was established by transfecting CHO-K1 cells with two mammalian expression vectors that harbored human CRTH2 and G-alpha16 cDNAs, respectively, using FuGene® 6 transfection reagent (from Roche). Stable clones expressing CRTH2 were selected by staining each clone with BM16 (BD Pharmingen™ from BD Biosciences, a division of Becton, Dickinson and Company), which is a rat monoclonal antibody to human CRTH2. The cells were maintained as monolayer cultures in Ham's F-12 medium containing 10% fetal bovine serum, 100 units/mL penicillin, 100 μg/mL streptomycin, 2 mM glutamine, 0.5 mg/mL G418 (geneticin) for CRTH2, and 0.2 mg/mL hygromycin-B (for G-alpha 16). For whole cell receptor binding assay, the monolayer cells were rinsed once with PBS (phosphate buffered saline), dissociated using ethylenediaminetetraacetate (Versene™ EDTA Lonza Inc.), and suspended in PBS containing 10 mM MgCl2 and 0.06% BSA (bovine serum albumin) at 1.5×10^6 cells/mL.
The binding reactions (0.2 mL) were performed in 96-well plates at room temperature in PBS containing 1.5×10^5 cells, 10 mM MgCl2, 0.06% BSA, 20 nM [^3H]ramatroban, and test compound at various concentrations. After 1 hour of binding reactions, the cells were harvested on GF™/B filter microplates (microtiter plates with embedded glass fiber from PerkinElmer, Inc.) and washed 5 times with PBS using a Filtermate™ Harvester (a cell harvester that harvests and washes cells from microplates from PerkinElmer, Inc.). The radioactivities bound to the cells were determined using a microplate scintillation counter (TopCount® NXT, from PerkinElmer, Inc.) after adding 50 μL of Microscint™ 20 scintillation fluid (from PerkinElmer, Inc.) to each well of the filter plates. The radioactivity from non-specific binding was determined by replacing compound with 10 μM of 15(R)-15-methyl PGD2 (from Cayman Chemical Company) in the reaction mixtures. The radioactivity bound to the cells in the absence of compound (total binding) was determined by replacing compound with 0.25% of DMSO (dimethyl sulfoxide) in the reaction mixture. Specific binding data were obtained by subtracting the radioactivity of non-specific binding from each binding data.
The IC50 value is defined as the concentration of the tested compound that is required for 50% inhibition of total specific binding. In order to calculate the IC50 value, the percent inhibition data were determined for 7 concentrations for each compound. The percent inhibition for a compound at each concentration was calculated according to the following formula, [1-(specific binding in the presence of compound)/(total specific binding)]x100. The IC50 value was then obtained by fitting the percent inhibition data to a sigmoidal dose-response (4 parameter logistic) model in the XLfit® software Excel add-in program [from ID Business Solutions Ltd., model 205, where F(x)=(A+(B−A)/(1+((C/x)^D)))].
`O=C(O)Cn1ncc2c1CCC[C@H]2NS(=O)(=O)c1ccc(Oc2ccccc2Cl)cc1Cl` [Example 5-5a, {(R)-4-[2-Chloro-4-(2-chloro-phenoxy)-benzenesulfonylamino]-4,5,6,7-tetrahydro-indazol-1-yl}-acetic acid] had a pIC50 of 8.16.
For `O=C(O)Cn1ncc2c1CCC[C@H]2NS(=O)(=O)c1cc(F)c(Oc2ccc(F)cc2)cc1Cl` [Example 5-6a, {(R)-4-[2-Chloro-5-fluoro-4-(4-fluoro-phenoxy)-benzenesulfonylamino]-4,5,6,7-tetrahydro-indazol-1-yl}-acetic acid] the value was 7.28; for `O=C(O)CCn1ncc2c1CCC[C@H]2NS(=O)(=O)c1ccc(Oc2ccccc2Cl)c(Cl)c1` [Example 5-7a, 3-{(R)-4-[3-Chloro-4-(2-chloro-phenoxy)-benzenesulfonylamino]-4,5,6,7-tetrahydro-indazol-1-yl}-propionic acid], 7.28; for `CN([C@@H]1CCCc2c1cnn2CC(=O)O)S(=O)(=O)c1cnc(Oc2ccc(Cl)cc2)c(Br)c1` [Example 6-1a, ((R)-4-{[5-Bromo-6-(4-chloro-phenoxy)-pyridine-3-sulfonyl]-methyl-amino}-4,5,6,7-tetrahydro-indazol-1-yl)-acetic acid], 8.40.
The result for `CN([C@@H]1CCCc2c1cnn2CC(=O)O)S(=O)(=O)c1cnc(Oc2ccccc2Cl)c(Br)c1` [Example 6-2a, ((R)-4-{[5-Bromo-6-(2-chloro-phenoxy)-pyridine-3-sulfonyl]-methyl-amino}-4,5,6,7-tetrahydro-indazol-1-yl)-acetic acid] reads 8.18; that for `CN([C@@H]1CCCc2c1cnn2CC(=O)O)S(=O)(=O)c1cnc(Oc2cc(Cl)cc(Cl)c2)c(Br)c1` [Example 6-3a, ((R)-4-{[5-Bromo-6-(3,5-dichloro-phenoxy)-pyridine-3-sulfonyl]-methyl-amino}-4,5,6,7-tetrahydro-indazol-1-yl)-acetic acid], 7.58; that for `CN([C@@H]1CCCc2c1cnn2CC(=O)O)S(=O)(=O)c1cnc(Oc2ccc(Cl)cc2Cl)c(Br)c1` [Example 6-4a, ((R)-4-{[5-Bromo-6-(2,4-dichloro-phenoxy)-pyridine-3-sulfonyl]-methyl-amino}-4,5,6,7-tetrahydro-indazol-1-yl)-acetic acid], 8.34.
Compound `CN([C@@H]1CCCc2c1cnn2CC(=O)O)S(=O)(=O)c1cnc(Oc2cc(Cl)ccc2Cl)c(Br)c1` [Example 6-5a, ((R)-4-{[5-Bromo-6-(2,5-dichloro-phenoxy)-pyridine-3-sulfonyl]-methyl-amino}-4,5,6,7-tetrahydro-indazol-1-yl)-acetic acid] had a pIC50 of 8.31.
For `CN([C@@H]1CCCc2c1cnn2CC(=O)O)S(=O)(=O)c1cnc(Oc2ccc(F)cc2Cl)c(Br)c1` [Example 6-6a, ((R)-4-{[5-Bromo-6-(2-chloro-4-fluoro-phenoxy)-pyridine-3-sulfonyl]-methyl-amino}-4,5,6,7-tetrahydro-indazol-1-yl)-acetic acid] the value was 8.17; for `CN([C@@H]1CCCc2c1cnn2CC(=O)O)S(=O)(=O)c1cnc(Oc2ccc(F)cc2F)c(Br)c1` [Example 6-7a, ((R)-4-{[5-Bromo-6-(2,4-difluoro-phenoxy)-pyridine-3-sulfonyl]-methyl-amino}-4,5,6,7-tetrahydro-indazol-1-yl)-acetic acid], 8.21.
The result for `CN([C@@H]1CCCc2c1cnn2CC(=O)O)S(=O)(=O)c1cnc(Oc2cccc(Cl)c2)c(Br)c1` [Example 6-8a, ((R)-4-{[5-Bromo-6-(3-chloro-phenoxy)-pyridine-3-sulfonyl]-methyl-amino}-4,5,6,7-tetrahydro-indazol-1-yl)-acetic acid] reads 7.92.
The result for `CN([C@@H]1CCCc2c1cnn2CC(=O)O)S(=O)(=O)c1cnc(Oc2ccc(Cl)cc2F)c(Br)c1` [Example 6-9a, ((R)-4-{[5-Bromo-6-(4-chloro-2-fluoro-phenoxy)-pyridine-3-sulfonyl]-methyl-amino}-4,5,6,7-tetrahydro-indazol-1-yl)-acetic acid] reads 8.15; that for `CN([C@@H]1CCCc2c1cnn2CC(=O)O)S(=O)(=O)c1cnc(Oc2ccc(Cl)c(F)c2)c(Br)c1` [Example 6-10a, ((R)-4-{[5-Bromo-6-(4-chloro-3-fluoro-phenoxy)-pyridine-3-sulfonyl]-methyl-amino}-4,5,6,7-tetrahydro-indazol-1-yl)-acetic acid], 7.73; that for `CC(C)c1ccc(Oc2ncc(S(=O)(=O)N(C)[C@@H]3CCCc4c3cnn4CC(=O)O)cc2Br)cc1` [Example 6-11a, ((R)-4-{[5-Bromo-6-(4-isopropyl-phenoxy)-pyridine-3-sulfonyl]-methyl-amino}-4,5,6,7-tetrahydro-indazol-1-yl)-acetic acid], 8.06.
`CN([C@@H]1CCCc2c1cnn2CC(=O)O)S(=O)(=O)c1cnc(Oc2ccc(F)cc2)c(Br)c1` [Example 6-12a, ((R)-4-{[5-Bromo-6-(4-fluoro-phenoxy)-pyridine-3-sulfonyl]-methyl-amino}-4,5,6,7-tetrahydro-indazol-1-yl)-acetic acid] showed a pIC50 of 8.08.
The result for `COc1cc(F)ccc1Oc1ncc(S(=O)(=O)N(C)[C@@H]2CCCc3c2cnn3CC(=O)O)cc1Br` [Example 6-13a, ((R)-4-{[5-Bromo-6-(4-fluoro-2-methoxy-phenoxy)-pyridine-3-sulfonyl]-methyl-amino}-4,5,6,7-tetrahydro-indazol-1-yl)-acetic acid] reads 8.19; that for `CN([C@@H]1CCCc2c1cnn2CC(=O)O)S(=O)(=O)c1cnc(Oc2ccc(C#N)cc2)c(Br)c1` [Example 6-14a, ((R)-4-{[5-Bromo-6-(4-cyano-phenoxy)-pyridine-3-sulfonyl]-methyl-amino}-4,5,6,7-tetrahydro-indazol-1-yl)-acetic acid], 8.09.
The compound `CC(C)c1cc(S(=O)(=O)N(C)[C@@H]2CCCc3c2cnn3CC(=O)O)cnc1Oc1ccc(Cl)cc1` [Example 7-1a, ((R)-4-{[6-(4-Chloro-phenoxy)-5-isopropyl-pyridine-3-sulfonyl]-methyl-amino}-4,5,6,7-tetrahydro-indazol-1-yl)-acetic acid] gave a pIC50 of 7.92. The pIC50 values of the last two compounds are within 0.2 log units of each other.
As to `CN([C@@H]1CCCc2c1cnn2CC(=O)O)S(=O)(=O)c1cnc(Oc2ccc(Cl)cc2)c(C2(C)CC2)c1` [Example 8-1a, ((R)-4-{[6-(4-Chloro-phenoxy)-5-(1-methyl-cyclopropyl)-pyridine-3-sulfonyl]-methyl-amino}-4,5,6,7-tetrahydro-indazol-1-yl)-acetic acid], the pIC50 is 7.84. This pIC50 and that of the compound before are within 0.2 log units of each other.
For `CN([C@@H]1CCCc2c1cnn2CC(=O)O)S(=O)(=O)c1ccc(Oc2ccccc2Cl)c(Cl)c1` [Example 9-1a, ((R)-4-{[3-Chloro-4-(2-chloro-phenoxy)-benzenesulfonyl]-methyl-amino}-4,5,6,7-tetrahydro-indazol-1-yl)-acetic acid] the value was 8.26; for `CN([C@@H]1CCCc2c1cnn2CC(=O)O)S(=O)(=O)c1ccc(Oc2cccc(Cl)c2)c(Cl)c1` [Example 9-2a, ((R)-4-{[3-Chloro-4-(3-chloro-phenoxy)-benzenesulfonyl]-methyl-amino}-4,5,6,7-tetrahydro-indazol-1-yl)-acetic acid], 7.91.

(Values after patent US8420675B2, “Aminotetrahydroindazoloacetic acids” (Hoffmann-La Roche Inc., priority 2008, dated 2013).)
